For this test, the target named is T1, hCRTH2 receptor (Homo sapiens, UniProt Q9Y5Y4).
T1 construct: expressed in transfected cells; host or cells: HEK293
T1 sequence (Q9Y5Y4 1-395): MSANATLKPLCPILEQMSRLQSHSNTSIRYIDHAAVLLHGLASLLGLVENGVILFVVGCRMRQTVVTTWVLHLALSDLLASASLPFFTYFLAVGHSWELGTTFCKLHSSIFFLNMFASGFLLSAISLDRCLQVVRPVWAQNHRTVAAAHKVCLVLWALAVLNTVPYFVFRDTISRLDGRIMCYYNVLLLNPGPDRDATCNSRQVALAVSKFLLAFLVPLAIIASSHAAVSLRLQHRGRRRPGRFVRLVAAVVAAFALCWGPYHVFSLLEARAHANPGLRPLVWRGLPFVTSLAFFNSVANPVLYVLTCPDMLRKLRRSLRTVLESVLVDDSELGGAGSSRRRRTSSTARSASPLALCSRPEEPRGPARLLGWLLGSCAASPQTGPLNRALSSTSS
Briefly: Radioligand displacement assay (3H-PGD2) on hCRTH2 receptor membranes. Format: binding. The conditions noted are these: antagonistic activity.

Setting [1] is: 3H-PGD2 displacement on HEK293-hCRTH2 membrane fragments.
The mark [2] stands for this setting: 3H-PGD2 radioligand displacement, HEK293-hCRTH2 membranes.

The structures appear in SMILES notation.

Compound `Cn1ccc(COCC(=O)N2CCc3ccccc3C2c2cc(F)ccc2OCC(=O)O)n1` (racemic) [Example 197, (±)-(4-Fluoro-2-{2-[2-(1-methyl-1H-pyrazol-3-ylmethoxy)-acetyl]-1,2,3,4-tetrahydro-isoquinolin-1-yl}-phenoxy)-acetic acid] returned an IC50 under setting [1] of 0.323 µM.

As for `O=C(O)COc1ccc(Cl)cc1C1c2ccccc2CN1C(=O)Cn1ccc2ccccc21` (racemic) [Example 507], the IC50 under setting [2] is 0.129 µM.

For the compound `Cc1conc1COC(=O)N1CCc2cc(F)ccc2[C@H]1c1cc(Cl)ccc1OCC(=O)O` [Example 331, (S)-1-(2-Carboxymethoxy-5-chloro-phenyl)-6-fluoro-3,4-dihydro-1H-isoquinoline-2-carboxylic acid 4-methyl-isoxazol-3-ylmethyl ester], the IC50 under setting [2] turned out to be 0.00729 µM.

Under setting [1], `O=C(O)COc1ccc(Cl)cc1C1c2ccccc2CCN1C(=O)OCc1cccc(C(F)(F)F)c1` (racemic) [Example 240] registered a half-maximal inhibitory concentration (IC50) of 0.0186 µM.

As for `O=C(O)COc1ccc(Cl)cc1C1c2ccccc2CCN1C(=O)OCc1ccccc1F` (racemic) [Example 234], the half-inhibitory concentration (IC50) under setting [1] came out at 0.00361 µM.

The compound `O=C(O)COc1ccc(F)cc1C1c2ccccc2CCN1C(=O)NCc1ccccc1Cl` (racemic) [Example 203] returned a half-inhibitory concentration (IC50) under setting [1] of 0.0279 µM.

Take `O=C(O)COc1ccc(Cl)cc1C1c2ccccc2CCN1C(=O)CCN1C(=O)CSC1c1ccccc1` (centres unmarked) [Example 84, (4-Chloro-2-{2-[3-(4-oxo-2-phenyl-thiazolidin-3-yl)-propionyl]-1,2,3,4-tetrahydro-isoquinolin-1-yl}-phenoxy)-acetic acid]: the IC50 under setting [1] amounted to 0.0284 µM.

Take `O=C(O)COc1ccc(Cl)cc1C1c2ccccc2CCN1C(=O)CCn1ccc2ccccc21` (racemic) [Example 378]: the IC50 under setting [2] amounted to 0.0116 µM.

The compound `Cn1nc(COC(=O)N2CCc3cc(F)ccc3[C@H]2c2cc(Cl)ccc2OCC(=O)O)c2ccccc21` [Example 346, (S)-1-(2-Carboxymethoxy-5-chloro-phenyl)-6-fluoro-3,4-dihydro-1H-isoquinoline-2-carboxylic acid 1-methyl-1H-indazol-3-ylmethyl ester] returned a half-inhibitory concentration (IC50) under setting [2] of 0.00116 µM.

In the case of `O=C(O)COc1ccc(Cl)cc1C1c2ccccc2CCN1C(=O)CCCc1cccc(Cl)c1` (racemic) [Example 112, (±)-(4-Chloro-2-{2-[4-(3-chloro-phenyl)-butyryl]-1,2,3,4-tetrahydro-isoquinolin-1-yl}-phenoxy)-acetic acid], under setting [1], the half-maximal inhibitory concentration (IC50) stood at 0.0234 µM.

On to `O=C(O)COc1ccc(Cl)cc1C1c2ccccc2CCN1C(=O)CCN1C(=O)COc2ccc(Cl)cc21` (racemic) [Example 442], for which the IC50 under setting [2] amounted to 0.347 µM.

Consider `O=C(O)COc1ccc(-n2nccn2)cc1C1c2ccccc2CCN1C(=O)OCc1ccccc1` (racemic) [Example 224, (±)-1-(2-Carboxymethoxy-5-[1,2, 3]triazol-2-yl-phenyl)-3,4-dihydro-1H-isoquinoline-2-carboxylic acid benzyl ester], for which the IC50 under setting [1] turned out to be 0.0127 µM.

Under setting [1], `COc1cccc(CCC(=O)N2CCc3ccccc3C2c2cc(F)ccc2OCC(=O)O)c1` (racemic) [Example 129, (±)-(4-Fluoro-2-{2-[3-(3-methoxy-phenyl)-propionyl]-1,2,3,4-tetrahydro-isoquinolin-1-yl}-phenoxy)-acetic acid] had an IC50 of 0.28 µM.

Under setting [2], `Cc1ccc(OCC(=O)N2CCc3ccccc3C2c2cc(Cl)ccc2OCC(=O)O)cc1` (racemic) [Example 414] showed a half-inhibitory concentration (IC50) of 0.126 µM.

`O=C(O)COc1ccc(Cl)cc1[C@@H]1c2ccc(F)c(F)c2CCN1C(=O)OCn1ncc2ccccc21` [Example 322, (S)-1-(2-Carboxymethoxy-5-chloro-phenyl)-5,6-difluoro-3,4-dihydro-1H-isoquinoline-2-carboxylic acid indazol-1-ylmethyl ester] had an IC50 under setting [2] of 0.00053 µM. Compared with the last compound, the IC50 is about 240-fold lower.

The compound `O=C(O)COc1ccc(F)cc1C1c2ccccc2CCN1C(=O)COCc1ccc(Cl)cc1` (racemic) [Example 191] gave a 50% inhibitory concentration (IC50) under setting [1] of 0.0333 µM. In other words, the double-digit nanomolar range.

For `O=C(O)COc1ccc(Cl)cc1[C@@H]1c2cccc(F)c2CCN1C(=O)OCc1ccccc1F` [Example 359, (S)-1-(2-Carboxymethoxy-5-chloro-phenyl)-5-fluoro-3,4-dihydro-1H-isoquinoline-2-carboxylic acid 2-fluoro-benzyl ester], the IC50 under setting [2] turned out to be 0.00179 µM.

Under setting [2], `COc1ccc(OCC(=O)N2CCc3ccccc3C2c2cc(Cl)ccc2OCC(=O)O)cc1` (racemic) [Example 415] showed a concentration for half-maximal inhibition (IC50) of 0.21 µM.

`O=C(OCc1ccccc1)N1CCc2ccccc2C1c1cc(Cl)ccc1OCc1cc(O)no1` (racemic) [Example 573, (±)-1-[5-Chloro-2-(3-hydroxy-isoxazol-5-ylmethoxy)-phenyl]-3,4-dihydro-1H-isoquinoline-2-carboxylic acid benzyl ester] yielded a half-maximal inhibitory concentration (IC50) (radioligand displacement (3H-PGD2), hCRTH2 receptor membranes) of 0.0153 µM.

In turn, `COc1ccccc1CNC(=O)N1CCc2ccccc2C1c1cc(F)ccc1OCC(=O)O` (racemic) [Example 201] had an IC50 under setting [1] of 0.021 µM. In other words, the double-digit nanomolar range.

`O=C(O)COc1ccc(Cl)cc1C1c2ccccc2CN1C(=O)COc1ccc(F)cc1` (racemic) [Example 504] had an IC50 under setting [2] of 0.033 µM.

In turn, `Cc1nc2ccccc2n1CCOC(=O)N1CCc2ccccc2[C@H]1c1cc(Cl)ccc1OCC(=O)O` [Example 293] yielded an IC50 under setting [2] of 0.0981 µM.

In the case of `O=C(O)COc1ccc(Cl)cc1C1c2ccccc2CN1C(=O)NCc1ccccc1` (racemic) [Example 555], the concentration for half-maximal inhibition (IC50) under setting [2] came out at 0.0145 µM.

For `O=C(O)COc1ccc(Cl)cc1[C@@H]1c2ccc(F)cc2CCN1C(=O)OCc1nc2ccccc2s1` [Example 344, (S)-1-(2-Carboxymethoxy-5-chloro-phenyl)-6-fluoro-3,4-dihydro-1H-isoquinoline-2-carboxylic acid benzothiazol-2-ylmethyl ester], under setting [2], the 50% inhibitory concentration (IC50) amounted to 0.0378 µM.

In turn, `COc1ccccc1CCC(=O)N1CCc2ccccc2C1c1cc(F)ccc1OCC(=O)O` (racemic) [Example 128, (±)-(4-Fluoro-2-{2-[3-(2-methoxy-phenyl)-propionyl]-1,2,3,4-tetrahydro-isoquinolin-1-yl}-phenoxy)-acetic acid] came in with an IC50 under setting [1] of 0.069 µM. That is a double-digit nanomolar value.

With `O=C(O)COc1ccc(Cl)cc1[C@@H]1c2ccc(F)c(F)c2CCN1C(=O)OCc1nc2ccccc2s1` [Example 319, (S)-1-(2-Carboxymethoxy-5-chloro-phenyl)-5,6-difluoro-3,4-dihydro-1H-isoquinoline-2-carboxylic acid benzothiazol-2-ylmethyl ester], under setting [2], the IC50 was determined as 0.00144 µM.

In the case of `O=C(O)COc1ccc(Cl)cc1C1c2ccccc2CCN1C(=O)NCc1ccccc1` (racemic) [Example 492], the IC50 under setting [2] was 0.0166 µM. This IC50 is about 12-fold higher than that of the compound before.

Under setting [1], `O=C(O)COc1ccc(Cl)cc1C1c2ccccc2CCN1C(=O)OCc1cc(F)ccc1F` (racemic) [Example 258] gave an IC50 of 0.00754 µM. This counts as single-digit nanomolar.

Under setting [2], `Cc1c(CCC(=O)N2CCc3ccccc3C2c2cc(Cl)ccc2OCC(=O)O)c2ccccc2n1C` (racemic) [Example 457] gave a half-inhibitory concentration (IC50) of 0.0608 µM.

For `Cc1nc2ccccc2n1CCOC(=O)N1CCc2cc(F)ccc2[C@H]1c1cc(Cl)ccc1OCC(=O)O` [Example 343], the 50% inhibitory concentration (IC50) under setting [2] was determined as 0.266 µM. Against the preceding compound, the IC50 is about 4.4-fold higher.

For `COc1ccccc1OCC(=O)N1CCc2ccccc2C1c1cc(Cl)ccc1OCC(=O)O` (racemic) [Example 406], the half-maximal inhibitory concentration (IC50) under setting [2] was found to be 0.0268 µM.

For `O=C(O)COc1ccc(F)cc1C1c2cc(Br)ccc2CCN1C(=O)OCc1ccccc1` (racemic) [Example 5, (±)-7-Bromo-1-(2-carboxymethoxy-5-fluoro-phenyl)-3,4-dihydro-1H-isoquinoline-2-carboxylic acid benzyl ester], the IC50 under setting [1] stood at 0.0812 µM.
